Assay results published in patent US20220127565A1, “A Self-Assembling Short Amphiphilic Peptide And Related Methods And Uses” (Agency for Science, Technology and Research, priority 2019, published 2022).
Residues, ends and D or L forms follow the SMILES beside them.

Columns and labels:
[1] = Gelation / hydrogel formation, minimum gelation concentration in water, buffered saline or PBS; assay type: physicochemical; settings: for Self-assembly into hydrogels / scaffolds: aqueous conditions; for Self-assembly into hydrogels / scaffolds / Minimum gelation concentration in buffered saline: buffered saline
Description: Preparation of Hydrogels.
Lyophilized peptide powder was dissolved in milliQ water and mixed for 30 seconds by vortexing to obtain a homogenous solution. 10% volume of 10-times phosphate-buffered saline was subsequently added and mixed by pipetting. Gelation occurred between seconds (PBS) to overnight (water), depending on the peptide concentration and solution used.

[2] = Circular dichroism spectroscopy, secondary structure transitions with increasing peptide concentration; assay type: physicochemical; settings: for Secondary structure transitions: Table 1; for Secondary structure / conformational transitions (circular dichroism): increasing peptide concentration
Description: Circular Dichroism Spectroscopy.
CD spectra were collected with a Jasco CD spectrophotometer fitted with a temperature controller, using quartz suprasil cuvettes with an optical path length of 1 mm. All samples were prepared in milIQ water and equilibrated for an hour at room temperature before measurement. Data acquisition was performed for wavelength range from 190-260 nm with a spectral bandwidth of 1.0 nm. All spectra were baseline-corrected using milliQ water as baseline. The mean residue ellipticity (MRE) was calculated as follows:
[θ]=θ/(10·N·c·l) where […] represents the ellipticity in millidegrees, N the number of amino acid residues, c the molar concentration in mol·L-1, and I the cell path length in cm.

[3] = Gelation in dimethylsulfoxide; assay type: physicochemical
[4] = tested on: 8 cm×8 cm excisional full thickness wound; experiment: Porcine wound healing study of peptide hydrogel wound dressings; assay type: in vivo; settings: hydrogel applied weekly for 6 weeks
Description: A porcine wound healing study was performed to evaluate the peptide hydrogels for wound healing applications. An 8 cm×8 cm excisional full thickness wound was created on the back of the animal, and three of the peptide hydrogels were applied using a polydimethylsiloxane mould. Wound dressing changes were carried out weekly for 6 weeks, with application of fresh hydrogel.

[5] = Thixotropy of hydrogel, recovery after vortexing; assay type: physicochemical; settings: hydrogel disturbed by vortexing
[6] = TGA degradation temperature; assay type: physicochemical
[7] = tested on: H1 human embryonic stem cells; experiment: Chromosomal aberrations after 5 passages of 3D culture; assay type: cell-based
Description: (§1) 3D Encapsulation of Stem Cells.
(§2) H1 embryonic stem cells cultured on Matrigel were dissociated into single cells using TrypLE Express, and re-suspended in 50% mTESR in PBS at an approximate concentration of 4×10^6, 10^7 or 1.6×10^7 cells/mL. 0.5 μL of cells was injected into a droplet of 2 μL 10 mg/mL peptide solution. Warmed culture media (mTESR) containing ROCK inhibitor Y-27632 was added for the first day and replaced by either mTESR or endoderm differentiation media subsequently. The endoderm differentiation protocol was adapted from Spence et al (2011). Briefly, the encapsulated cells were exposed to RPMI media containing 100 ng/mL Activin A, 2 mM glutamax, 1% penicillin-streptomycin and increasing concentrations of defined fetal bovine serum. After 3 days, the hydrogel droplets were washed with RPMI and incubated in hindgut differentiation media (RPMI media containing 1% defined fetal bovine serum, 1% penicillin-streptomycin, 2 mM glutamax, 500 ng/mL FGF4 and 500 ng/mL Wnt3A.

[8] = tested on: embryonic stem cells H1 and H9; experiment: 3D culture of pluripotent stem cells encapsulated in hydrogel droplets; assay type: cell-based, human; settings: for Colony formation of single cell suspensions in hydrogel: H1 and H9, cell encapsulation densities exceeding 5×10^6 cells/mL
Description: as §1, §2
Immunohistochemistry and Confocal Microscopy Imaging.
Cell samples were fixed in 4% paraformaldehyde for 15 minutes and permeabilized in 0.01% Triton-X for 10 minutes. The encapsulated human embryonic stem cells were incubated at 4° C. overnight in 5% Bovine-Serum Albumin containing primary antibodies. The corresponding secondary antibodies and DAPI were applied for 90 minutes before the samples were imaged. Confocal microscopy was performed using a Zeiss LSM 510 microscope at the Institute of Medical Biology Microscopy Unit (A*STAR, Singapore).

H9 embryonic stem cells = experiment: 3D endoderm / hindgut differentiation of encapsulated stem cells (H9); assay type: cell-based, human; settings: H9 in 8 mg/mL hydrogel droplets
[9] = Rheology, storage modulus of hydrogels; assay type: physicochemical; settings: hydrogels prepared in buffered saline
Description: Hydrogel samples were prepared in polydimethysiloxane moulds to obtain approximately 1 mm thick, 8 mm diameter discs. Dynamic strain and oscillatory frequency sweep experiments were carried out using the ARES-G2 Rheometer (TA Instruments, Piscataway, N.J.) with 8 mm titanium parallel plate geometry. The readings of 3 samples were averaged for each condition.

## H-KGAVLI-NH2 [KGAVLI-NH2]
[1]
  Self-assembly into hydrogels / scaffolds: forms hydrogels in buffered saline
  Minimum gelation concentration in buffered saline: 20 mg/mL
[2]
  Secondary structure transitions: Yes
  Secondary structure / conformational transitions (circular dichroism): same conformational transitions

## Ac-HGAVIA-NH2 [Ac-HGAVIA-NH2]
[3]
  Gel formation in dimethylsulfoxide: thixotrophic gels

## Ac-SGAVIA-NH2 [Ac-SGAVIA-NH2]
[3]
  Gel formation in dimethylsulfoxide: thixotrophic gels

## H-SGAVLI-NH2 [SGAVLI-NH2]
[4]
  Reduction of wound size: effective reduction of wound size
[3]
  Gel formation in dimethylsulfoxide: thixotrophic gels

## CC[C@H](C)[C@H](NC(=O)[C@@H](NC(=O)[C@H](CC(=O)O)NC(C)=O)C(C)C)C(N)=O [Ac-DVI-NH2] (Ac-Asp-Val-Ile-NH2)
[1]
  [Peptide] min, PBS: 9.9 mg/mL
  Self-assembly into hydrogels / scaffolds: self-assemble into nanofibrous scaffolds
  [Peptide] min, water: 11.6 mg/mL
[5]
  Standing time to return to gel state after vortexing: 10 min
[6]
  TGA Degradation Temperature: 321.5 °C

## Ac-GAVLI-NH2 [Ac-GAVLI-NH2]
[3]
  Gel formation in dimethylsulfoxide: thixotrophic gels

## CC[C@H](C)[C@H](NC(C)=O)C(=O)N[C@H](C(=O)N[C@@H](CC(=O)O)C(=O)O)C(C)C [Ac-IVD, reference compound] (Ac-Ile-Val-Asp-OH; C-terminus assumed)
[1]
  [Peptide] min, PBS: 19.2 mg/mL
  [Peptide] min, water: 40.8 mg/mL
[6]
  TGA Degradation Temperature: 323.6 °C

## Ac-KGAVLI-NH2 [Ac-KGAVLI-NH2]
[1]
  Minimum gelation concentration in buffered saline: 3 mg/mL
[4]
  Reduction of wound size: effective reduction of wound size
[7]
  Mutagenicity, chromosomal aberrations: non-mutagenic
[2]
  Secondary structure transitions: Yes
  Secondary structure / conformational transitions (circular dichroism): same secondary structure transitions as their parent sequences
[8]; 2×10^6 cells/mL
  Colony formation at lower cell seeding densities: formation of several colonies within a single droplet
[8]
  Colony formation of single cell suspensions in hydrogel: more likely to aggregate into a single colony
[8]; cultured in defined mTESR media
  Pluripotency, staining of Oct4 and Tral-60 biomarkers: retained their pluripotency
[8]; day 7, bioprinted hydrogel droplets encapsulating cells
  Retention of the expanding colonies: higher retention of the expanding colonies
[8]; synthetic 3D stem cell culture substrate, compared to Gen1 analog
  Cell migration and consistency in generating single colonies: enhanced cell migration and better consistency in generating single colonies
H9 embryonic stem cells; day 9
  Expression of hindgut biomarker Cdx2: expression of hindgut biomarker Cdx2 was observed
H9 embryonic stem cells; definitive endoderm differentiation
  Cells expressing Sox17, flow cytometry: 90%

## Ac-ILVAGK-NH2 [Ac-ILVAGK-NH2, reference compound]
[1]
  Minimum gelation concentration in buffered saline: 3 mg/mL
[9]
  Storage moduli of hydrogels: ~10 kPa
[2]
  Secondary structure transitions: Yes
[8]
  Colony formation of single cell suspensions in hydrogel: several colonies developed

## Ac-HGAVLI-NH2 [Ac-HGAVLI-NH2]
[4]
  Reduction of wound size: effective reduction of wound size
[3]
  Gel formation in dimethylsulfoxide: thixotrophic gels

## CC[C@H](C)[C@H](NC(=O)[C@@H](NC(=O)[C@H](CCCCN)NC(C)=O)C(C)C)C(N)=O [Ac-KVI-NH2] (Ac-Lys-Val-Ile-NH2)
[1]
  Minimum gelation concentration in buffered saline: >30 mg/mL
[2]
  Secondary structure transitions: Yes
  Secondary structure / conformational transitions (circular dichroism): same secondary structure transitions as their parent sequences

## CC[C@H](C)[C@H](NC(C)=O)C(=O)N[C@H](C(=O)N[C@@H](CCCCN)C(N)=O)C(C)C [Ac-IVK-NH2, reference compound] (Ac-Ile-Val-Lys-NH2)
[1]
  Minimum gelation concentration in buffered saline: >30 mg/mL
[2]
  Secondary structure transitions: Yes

## CC[C@H](C)[C@H](NC(C)=O)C(=O)N[C@H](C(=O)N[C@@H](CC(=O)O)C(N)=O)C(C)C [Ac-IVD-NH2, reference compound] (Ac-Ile-Val-Asp-NH2)
[1]
  [Peptide] min, PBS: 33.9 mg/mL
  [Peptide] min, water: 44.9 mg/mL
[6]
  TGA Degradation Temperature: 328.5 °C
